Reference: patent publication US20130123287A1, “CONTROL AGENT FOR SOFT ROT AND CONTROL METHOD FOR THE SAME” (ISHIHARA SANGYO KAISHA, LTD., priority 2010, published 2013)

Key:
[1] = system: soft rot of Chinese cabbage; assay: Test for controlling soft rot of Chinese cabbage, Example 3 / Comparative Example 3 (field, cultivar Muso); assay type: in vivo; conditions: 500 g ai/10 a, 150 L/10 a sprayed onto planting holes before planting, 51 days after start
From the text: (§1) Frequency of the disease=[sigma(number of plants with the onset of the disease at each severity level*index of the onset of the disease)/(plants examined*4)]*100
(§2) Disease control value=[1-(frequency of the disease in the treated lot/frequency of the disease in the non-treated lot)]*100
(§3) • 0: No onset • 1: Onset in some of outer leaves (shippable) • 2: Onset in outer leaves and some of head leaves (by removing damaged parts, the resulting cabbage can be shipped as small cabbage but is ranked as grade B). • 3: Most of head leaves are inflicted with the onset of the disease or with severer damages (not shippable) • 4: Whole cabbage plant is inflicted with the onset of the disease and is dead.
442 g/l kresoxim-methyl (STROBY FLOWABLE [trade name], manufactured by BASF) was adjusted to 500 g ai/10a (0.5 g/m^2, 1131 ml Product/10a) as the amount of the active ingredient and to 150 L/10a as the volume of diluent water. […]
(§4) 51 days after the start of the tests, all the plants in each lot were examined about the severity level of the disease to assess the frequency of the disease and the disease control value. The frequency of the disease and the disease control value were determined in the same manner as described above. Because soft rot is a disease with damages hardly controlled, herein, even a chemical at the level C determined by the tests of the effects can practically be used.

[2] = system: bacteria causing the soft rot (Erwinia carotovora); assay: Inhibition test of growth of bacteria causing soft rot, Reference Test Example 6; assay type: cell-based; conditions: for formed colonies (growth state), grade: PSA medium, 27 degrees Celsius, 3 days
From the text: (§5) An inhibition test of the growth of bacteria causing the soft rot was done, when a control agent was directly applied to the bacteria causing the soft rot. A given volume of each pesticide of fludioxonil (Seibia FL [trade name] manufactured by Syngenta Japan K.K.), iminoctadine albesilate salt (Bellkute WP [trade name], manufactured by Nippon Soda Co., Ltd.), iprodione (Rovral WP [trade name] manufactured by Bayer Crop Science Co., Ltd.), and streptomycin (Mycin Wettable powder [trade name] manufactured by Hokko Chemical Industry Co., Ltd.) was added together with a suspension of the bacteria causing the soft rot (Erwinia carotovora) to a preliminarily dissolved PSA culture medium (55 degrees Celsius) for subsequent thorough agitation, which was then spread on a plate for culturing at 27 degrees Celsius for 3 days, to examine the growth state. Subsequently, the formed colonies were examined according to the following three grades. • +: at the same level as the level of non-treated lot.
(§6) Plus or minus: apparently less than the colonies of the non-treated lot. • −: almost no colonies observed.

[3] = system: soft rot of Chinese cabbage; assay: Test for controlling soft rot of Chinese cabbage, Example 2 / Comparative Example 2 (field, cultivar Harebutai 65); assay type: in vivo; conditions: 500 g ai/10 a, 150 L/10 a sprayed onto planting holes before planting, 64 days after start
From the text: as §1, §2, §3
200 g/l Azoxystrobin (Amistar 20 FLOWABLE [trade name], manufactured by Syngenta Japan K.K.) was adjusted to 500 g ai/10a (0.5 g/m^2, 2500 ml Product/10a) as the amount of the active ingredient and to 150 L/10a as the volume of diluent water.
30% w/w triflumizol (TRIFUMIN WP [trade name], manufactured by Nippon Soda Co., Ltd.) was adjusted to 500 g ai/10a (0.5 g/m^2, 1667 g Product/10a) as the amount of the active ingredient and to 150 L/10a as the volume of diluent water.
100 g/1 cyazofamid (RANMAN PLOWABLE [trade name], manufactured by Ishihara Sangyo Kaisha, Ltd.) was adjusted to 500 g ai/10a (0.5 g/m^2, 5000 ml Product/10a) as the amount of the active ingredient and to 150 L/10a as the volume of diluent water.
50% w/w penthiopyrad (GAIA WG [trade name], manufactured by Mitsui Chemicals Agro, Inc.) was adjusted to 500 g ai/10a (0.5 g/m^2, 1000 g Product/10a) as the amount of the active ingredient and to 150 L/10a as the volume of diluent water.
50 g/l flusulfamide (SCABLOCK SC [trade name], manufactured by Mitsui Chemicals Agro, Inc.) was adjusted to 500 g ai/10a (0.5 g/m^2, 10000 ml Product/10a) as the amount of the active ingredient and to 150 L/10a as the volume of diluent water.
400 g/1 chlorothalonil (Daconil 1000 [the trade name], manufactured by Sumitomo Chemical, Limited) was adjusted to 1000 g ai/10a (1.0 g/m^2, 2500 ml Product/10a) as the amount of the active ingredient and to 150 L/10a as the volume of diluent water.
(§7) After spreading an agricultural mulch-sheet and opening planting holes (diameter of about 5 cm) for permanent planting through the mulch-sheet, the spray solutions prepared as described above were sprayed onto the planting holes such that the amount of treated active ingredient of chlorothalonil was 1.0 g/m^2 (150 L per 10a) and the amount of each of the remaining spray solutions was 0.5 g/m^2 (150 L per 10a), followed by air-drying; subsequently, seedlings of Chinese cabbage (cultivar Harebutai 65) grown for 4 weeks in cell mold trays (128 holes/nursery box) were planted such that 19 seedlings were planted in each test lot having an area of 2.4 m^2 with two replications.
(§8) Preparation was performed by diluting streptomycin (Mycin 20 wettable powder solution [under the trade name] manufactured by Hokko Chemical Industry Co., Ltd.) with water to 1/1000.
(§9) In a field spread with the agricultural mulch-sheet, Chinese cabbage seedlings (cultivar: Harebutai 65) grown by the same method as in Example 2 were planted by the same method as in Example 2, for spraying the spray solution of streptomycin prepared above in (1) (at each spray volume of 300 L/10a) twice (27 days and 48 days after the planting of the seedlings) on the stems and leaves with a sprayer.
as §4, with “64” for “51”, “In the same manner as described above, the” for “The”, “determined. Additionally,” for “determined in the same manner as described above. Because”, “so” for “herein,”

[4] = system: soft rot of Chinese cabbage; assay: Test for controlling soft rot of Chinese cabbage, Example 1 / Comparative Example 1 (field, cultivar Muso); assay type: in vivo; conditions: 250 g ai/10 a, 150 L/10 a sprayed onto planting holes before planting, 54 days after start
Method: 200 g/l Azoxystrobin (Amistar 20 FLOWABLE [trade name], manufactured by Syngenta Japan K.K.) was adjusted to 250 g ai/10a (0.25 g/m^2, 1250 ml Product/10a) as the amount of the active ingredient and to 150 L/10a as the volume of diluent water.
100 g/l Cyazofamid (RANMAN FLOWABLE [trade name], manufactured by Ishihara Sangyo Kaisha, Ltd.) was adjusted to 250 g ai/10a (0.25 g/m^2, 2500 ml Product/10a) as the amount of the active ingredient and to 150 L/10a as the volume of diluent water.
177 g/l Amisulbrom (LEIMAY FLOWABLE [trade name], manufactured by Nissan Chemical Industries, Ltd.) was adjusted individually to 250 g ai/10a (0.25 g/m^2, 1412 ml Product/10a) as the amount of the active ingredient and to 150 L/10a as the volume of diluent water.
as §7, with “about 9” for “about 5”, “of each spray solution” for “of chlorothalonil”, “was 0.25” for “was 1.0 g/m^2 (150 L per 10a) and the amount of each of the remaining spray solutions was 0.5”, “cabbage (cultivar: Muso)” for “cabbage (cultivar Harebutai 65)”, “that 30” for “that 19”, “of 6” for “of 2.4”
as §8
as §9, with “Muso)” for “Harebutai 65)”, “1” for “2”, “1,” for “2,”, “three times (13 days, 20” for “twice (27”, “27” for “48”, “leaves.” for “leaves with a sprayer.”
54 days after the start of the tests, all the plants in each lot were examined about the severity level of the disease; according to the following equations, the ratio of the plants with the onset of the disease, the frequency of the disease, and the disease control value were calculated to determine and rank the effects at A to D levels. Because soft rot is a disease with damages hardly controlled, herein, even a chemical at the level C determined by the tests of the effects can practically be used.
Ratio of the plants with the onset of the disease=(Number of plants with the onset of the disease/number of plants examined)*100
Frequency of the disease=[sigma(number of plants with the onset of the disease at each severity level*index of the onset of the disease)/(plants examined*4)]*100 […]

[5] = system: bacteria causing the soft rot (Erwinia carotovora); assay: Inhibition test of growth of bacteria causing soft rot, Reference Test Example 1; assay type: cell-based; conditions: for formed colonies (growth state), grade: PSA medium, 25 degrees Celsius, 4 days
Method: as §5, with “cyazofamid (RANMAN 400SC” for “fludioxonil (Seibia FL”, “Ishihara Sangyo Kaisha, Ltd.), amisulbrom (LEIMAY FLOWABLE” for “Syngenta Japan K.K.), iminoctadine albesilate salt (Bellkute WP”, “Nissan Chemical Industries, Ltd.)” for “Nippon Soda Co., Ltd.), iprodione (Rovral WP [trade name] manufactured by Bayer Crop Science Co., Ltd.),”, “25” for “27”, “4” for “3”
as §6

[6] = active ingredient concentration of 1,000 ppm

Row | Compound | Determination of effect [1] | formed colonies (growth state), grade ([2]; 100 ppm active ingredient) | formed colonies (growth state), grade ([2]; 500 ppm active ingredient) | formed colonies (growth state), grade ([2]; 1000 ppm active ingredient) | inhibition of growth of Erwinia carotovora (in words) [2, 6] | Determination of effect [3] | Determination of effect [4] | formed colonies (growth state), grade ([5]; 100 ppm active ingredient) | formed colonies (growth state), grade ([5]; 500 ppm active ingredient) | formed colonies (growth state), grade ([5]; 1000 ppm active ingredient) | inhibition of growth of Erwinia carotovora (in words) [5, 6]
1 | 1,1′-iminodi(octamethylene)diguanidinium=tris(alkylbenzenesulfonate) [Iminoctadine albesilate salt] | B (B: Effective (41 to 60 disease control value)) | +, + | +, + | +, + | never inhibited the growth | – | – | – | – | – | –
2 | Cc1ccc(-c2c(Cl)nc(C#N)n2S(=O)(=O)N(C)C)cc1 [Cyazofamid, 4-chloro-2-cyano-N,N-dimethyl-5-p-tolylimidazole-1-sulfoneamide] | – | – | – | – | – | C (C: Effective at low level (21 to 40 disease control value)) | D (D: Poorly effective (20 or smaller disease control value)) | +, + | +, + | +, + | never inhibited the growth
